Results reported in patent US9700047B2, “Macrocyclic picolinamides as fungicides” (Dow AgroSciences LLC, priority 2014, dated 2017).
Where two headings read alike, the source gives them in different places.

Test system: Puccinia triticina; Synonym: Puccinia recondita f sp. tritici
Experiment: Wheat brown rust (PUCCRT) disease control on wheat seedlings
Type: in vivo
Settings: for pest or weed control at 121.5 g/ha: Low Volume activity at 121.5 g/H; for pest or weed control at 100 ppm: High Volume activity at 100 ppm
Method: All fungicides were evaluated using the aforementioned method for their activity vs. all target diseases, unless stated otherwise. Wheat leaf blotch and brown rust activity were also evaluated using track spray applications, in which case the fungicides were formulated as EC formulations, containing 0.1% Trycol 5941 in the spray solutions. Wheat plants (variety Yuma) were grown from seed in a greenhouse in 50% mineral soil/50% soil-less Metro mix until the first leaf was fully emerged, with 7-10 seedlings per pot. These plants were inoculated with an aqueous spore suspension of Puccinia triticina either prior to or after fungicide treatments. […] The plants were then transferred to a greenhouse set at 24° C. for disease to develop. Fungicide formulation, application and disease assessment followed the procedures as described in the Example A.

[1] = 24 h, 1 Day Protectant, read-out: PUCCRT 1DP % Control rating
[2] = 72 h, 3 Day Curative, read-out: PUCCRT 3DC % Control rating

Structure (SMILES) | pest or weed control at 121.5 g/ha [1] | pest or weed control at 121.5 g/ha [2] | pest or weed control at 100 ppm [1] | pest or weed control at 100 ppm [2]
COc1ccnc(C(=O)N[C@H]2CCC[C@H](CCC(C)C)[C@@H](C3CCCC3)[C@H](C)OC2=O)c1OCOC(C)=O [Compound 42] | > 70% | < 70% |  | 
COc1ccnc(C(=O)N[C@H]2CCC[C@H](CCC(C)C)[C@@H](C3CCCC3)[C@H](C)OC2=O)c1OC(C)=O [Compound 43] | > 70% | < 70% |  | 
COc1ccnc(C(=O)N[C@H]2CCC[C@H](CCC(C)C)[C@@H](C3CCCC3)[C@H](C)OC2=O)c1OCOC(=O)C(C)C [Compound 44] | > 70% | < 70% |  | 
COc1ccnc(C(=O)N[C@H]2CCC[C@H](Cc3ccccc3)[C@@H](CCC(C)C)[C@H](C)OC2=O)c1OC(C)=O [Compound 45] | > 70% | < 70% |  | 
CCC[C@H]1CCC[C@H](NC(=O)c2nccc(OC)c2OC(C)=O)C(=O)O[C@@H](C)[C@@H]1Cc1ccc(F)cc1 [Compound 46] | > 70% | > 70% |  | 
COc1ccnc(C(=O)N[C@H]2CCC[C@H](Cc3ccccc3)[C@@H](CCC(C)C)[C@H](C)OC2=O)c1OCOC(C)=O [Compound 47] | > 70% | < 70% |  | 
CCC[C@H]1CCC[C@H](NC(=O)c2nccc(OC)c2OCOC(C)=O)C(=O)O[C@@H](C)[C@@H]1Cc1ccc(F)cc1 [Compound 48] | > 70% | > 70% |  | 
COc1ccnc(C(=O)N[C@H]2CCC[C@H](Cc3ccccc3)[C@@H](CCC(C)C)[C@H](C)OC2=O)c1OC(=O)C(C)C [Compound 49] | < 70% | < 70% |  | 
COc1ccnc(C(=O)N[C@H]2CCC[C@H](Cc3ccccc3)[C@@H](CCC(C)C)[C@H](C)OC2=O)c1OCOC(=O)C(C)C [Compound 50] | > 70% | < 70% |  | 
CCOCC(=O)OCOc1c(OC)ccnc1C(=O)N[C@H]1CCC[C@H](Cc2ccccc2)[C@@H](CCC(C)C)[C@H](C)OC1=O [Compound 51] | > 70% | < 70% |  | 
COc1ccnc(C(=O)N[C@H]2CCC[C@H](Cc3ccccc3)[C@@H](c3ccccc3)[C@H](C)OC2=O)c1OCOC(C)=O [Compound 52] | > 70% | < 70% |  | 
COc1ccnc(C(=O)N[C@H]2CCC[C@H](Cc3ccccc3)[C@@H](c3ccccc3)[C@H](C)OC2=O)c1OC(C)=O [Compound 53] | > 70% | < 70% |  | 
CCC[C@H]1CCC[C@H](NC(=O)c2nccc(OC)c2OCOC(C)=O)C(=O)O[C@@H](C)[C@@H]1c1ccccc1 [Compound 54] | > 70% | > 70% |  | 
CCC[C@H]1CCC[C@H](NC(=O)c2nccc(OC)c2OC(C)=O)C(=O)O[C@@H](C)[C@@H]1c1ccccc1 [Compound 55] | > 70% | > 70% |  | 
COc1ccnc(C(=O)N[C@H]2CCC[C@H](CCCc3ccccc3)[C@@H](CC(C)C)[C@H](C)OC2=O)c1OC(C)=O [Compound 56] | > 70% | < 70% |  | 
COc1ccnc(C(=O)N[C@H]2CCC[C@H](CCCc3ccccc3)[C@@H](Cc3ccc(OC(F)(F)F)cc3)[C@H](C)OC2=O)c1OC(C)=O [Compound 57] | < 70% | < 70% |  | 
COc1ccnc(C(=O)N[C@H]2CCC[C@H](CCCc3ccccc3)[C@@H](Cc3ccc(OC(F)(F)F)cc3)[C@H](C)OC2=O)c1OC(=O)C(C)C [Compound 58, 4-methoxy-2-(((3S,7S,8R,9S)-9-methyl-2-oxo-7-(3-phenylpropyl)-8-(4-(trifluoromethoxy)benzyl)oxonan-3-yl)carbamoyl)pyridin-3-yl isobutyrate] | < 70% | < 70% |  | 
COc1ccnc(C(=O)N[C@H]2CCC[C@H](CCCc3ccccc3)[C@@H](Cc3ccc(OC(F)(F)F)cc3)[C@H](C)OC2=O)c1OCOC(C)=O [Compound 59] | > 70% | < 70% |  | 
COc1ccnc(C(=O)N[C@H]2CCC[C@H](CC3CC3)[C@@H](Cc3ccccc3)[C@H](C)OC2=O)c1OC(C)=O [Compound 60] | > 70% | > 70% |  | 
COc1ccnc(C(=O)N[C@H]2CCC[C@H](CC3CC3)[C@@H](Cc3ccccc3)[C@H](C)OC2=O)c1OCOC(C)=O [Compound 61] | > 70% | > 70% |  | 
COc1ccnc(C(=O)N[C@H]2CCC[C@H](Cc3ccccc3)[C@@H](Cc3ccc(F)cc3)[C@H](C)OC2=O)c1OC(C)=O [Compound 62] | > 70% | < 70% |  | 

Structure (SMILES) | pest or weed control at 121.5 g/ha [1] | pest or weed control at 121.5 g/ha [2] | pest or weed control at 100 ppm [1] | pest or weed control at 100 ppm [2]
COc1ccnc(C(=O)N[C@H]2CCC[C@H](Cc3ccccc3)[C@@H](Cc3ccc(F)cc3)[C@H](C)OC2=O)c1OCOC(C)=O [Compound 63] | > 70% | < 70% |  | 
COc1ccnc(C(=O)N[C@H]2CCC[C@H](Cc3ccccc3)[C@@H](Cc3ccc(F)cc3)[C@H](C)OC2=O)c1OCOC(=O)C(C)C [Compound 64] | > 70% | < 70% |  | 
COc1ccnc(C(=O)N[C@H]2CCC[C@H](Cc3ccc(C(F)(F)F)cc3)[C@@H](Cc3ccc(OC(F)(F)F)cc3)[C@H](C)OC2=O)c1OCOC(C)=O [Compound 65] | < 70% | < 70% |  | 
CCOCC(=O)OCOc1c(OC)ccnc1C(=O)N[C@H]1CCC[C@H](Cc2ccc(C(F)(F)F)cc2)[C@@H](Cc2ccc(OC(F)(F)F)cc2)[C@H](C)OC1=O [Compound 66] | < 70% | < 70% |  | 
COc1ccnc(C(=O)N[C@H]2CCC[C@H](Cc3ccc(C(F)(F)F)cc3)[C@@H](Cc3ccc(OC(F)(F)F)cc3)[C@H](C)OC2=O)c1OC(C)=O [Compound 67] | < 70% | < 70% |  | 
COc1ccnc(C(=O)N[C@H]2CCC[C@H](Cc3ccccc3)[C@@H](Cc3ccc(OC(F)(F)F)cc3)[C@H](C)OC2=O)c1OCOC(C)=O [Compound 68] | < 70% | < 70% |  | 
CCOCC(=O)OCOc1c(OC)ccnc1C(=O)N[C@H]1CCC[C@H](Cc2ccccc2)[C@@H](Cc2ccc(OC(F)(F)F)cc2)[C@H](C)OC1=O [Compound 69] | < 70% | < 70% |  | 
COc1ccnc(C(=O)N[C@H]2CCC[C@H](CCCc3ccccc3)[C@@H](Cc3ccccc3)[C@H](C)OC2=O)c1OCOC(C)=O [Compound 70] | > 70% | < 70% |  | 
CCCC[C@@H]1[C@@H](Cc2ccccc2)CCC[C@H](NC(=O)c2nccc(OC)c2O)C(=O)O[C@H]1C [Compound 71, N-((3S,7R,8R,9S)-7-benzyl-8-butyl-9-methyl-2-oxooxonan-3-yl)-3-hydroxy-4-methoxypicolinamide] |  |  | > 70% | > 70%
CCCC[C@@H]1[C@@H](Cc2ccc(C(F)(F)F)cc2)CCC[C@H](NC(=O)c2nccc(OC)c2O)C(=O)O[C@H]1C [Compound 72] |  |  | > 70% | < 70%
COc1ccnc(C(=O)N[C@H]2CCC[C@H](CCC(C)C)[C@@H](Cc3ccccc3)[C@H](C)OC2=O)c1O [Compound 73] |  |  | > 70% | < 70%
COc1ccnc(C(=O)N[C@H]2CCC[C@H](Cc3ccccc3)[C@@H](Cc3ccccc3)[C@H](C)OC2=O)c1O [Compound 74] |  |  | > 70% | > 70%
COc1ccnc(C(=O)N[C@H]2CCC[C@H](Cc3ccccc3)[C@@H](C3CCCC3)[C@H](C)OC2=O)c1O [Compound 75] |  |  | > 70% | < 70%
COc1ccnc(C(=O)N[C@H]2CCC[C@H](Cc3ccc(Cl)cc3)[C@@H](CC(C)C)[C@H](C)OC2=O)c1O [Compound 76] |  |  | > 70% | < 70%
COc1ccnc(C(=O)N[C@H]2CCC[C@H](Cc3ccccc3)[C@@H](CCc3ccccc3)[C@H](C)OC2=O)c1O [Compound 78] |  |  | > 70% | < 70%
COc1ccnc(C(=O)N[C@H]2CCC[C@H](Cc3ccc(Cl)cc3)[C@@H](Cc3ccccc3)[C@H](C)OC2=O)c1O [Compound 79] |  |  | > 70% | < 70%
COc1ccnc(C(=O)N[C@H]2CCC[C@H](Cc3ccc(C(F)(F)F)cc3)[C@@H](CC(C)C)[C@H](C)OC2=O)c1O [Compound 80] |  |  | > 70% | < 70%
COc1ccnc(C(=O)N[C@H]2CCC[C@H](Cc3ccc(C(F)(F)F)cc3)[C@@H](Cc3ccccc3)[C@H](C)OC2=O)c1O [Compound 81] |  |  | > 70% | < 70%
CCC[C@H]1CCC[C@H](NC(=O)c2nccc(OC)c2O)C(=O)O[C@@H](C)[C@@H]1Cc1ccccc1 [Compound 82] |  |  | > 70% | > 70%
COc1ccnc(C(=O)N[C@H]2CCC[C@H](CCC(C)C)[C@@H](CCc3ccccc3)[C@H](C)OC2=O)c1O [Compound 83] |  |  | > 70% | < 70%
COc1ccnc(C(=O)N[C@H]2CCC[C@H](Cc3ccc(Cl)cc3)[C@@H](C3CCCC3)[C@H](C)OC2=O)c1O [Compound 84] |  |  | > 70% | < 70%
